Assay results as given in patent US9790253B2, “OSW-1 analogs and conjugates, and uses thereof” (priority 2011, dated 2017).
“Also recorded” adds a separate entry of the source. Read-outs that look alike come from different tables or passages of the source. Where a SMILES comes first, the peptide text is derived from it. The star is where a group is joined. Cbz = O=C(OCc1ccccc1)*

Columns and labels:
A549 cells = assay: cells; type: cell-based, human; details: for GI50: Homo sapiens, A549, 48 h, read-out: GI50 (nM) 48 h
Excerpt: Methods are essentially as described above in the General Methods section in connection with assays using HCT-116 cells.

OSBP1-myc-his = biological target: T1, OSBP1-myc-his (Homo sapiens, UniProt P22059); assay: [3H]-25-hydroxycholesterol charcoal-dextran binding assay with OSBP1-myc-his
T1 construct: made in house; host or cells: HEK-293T (transient transfection; S100 lysate, not purified)
T1 sequence (P22059 1-807): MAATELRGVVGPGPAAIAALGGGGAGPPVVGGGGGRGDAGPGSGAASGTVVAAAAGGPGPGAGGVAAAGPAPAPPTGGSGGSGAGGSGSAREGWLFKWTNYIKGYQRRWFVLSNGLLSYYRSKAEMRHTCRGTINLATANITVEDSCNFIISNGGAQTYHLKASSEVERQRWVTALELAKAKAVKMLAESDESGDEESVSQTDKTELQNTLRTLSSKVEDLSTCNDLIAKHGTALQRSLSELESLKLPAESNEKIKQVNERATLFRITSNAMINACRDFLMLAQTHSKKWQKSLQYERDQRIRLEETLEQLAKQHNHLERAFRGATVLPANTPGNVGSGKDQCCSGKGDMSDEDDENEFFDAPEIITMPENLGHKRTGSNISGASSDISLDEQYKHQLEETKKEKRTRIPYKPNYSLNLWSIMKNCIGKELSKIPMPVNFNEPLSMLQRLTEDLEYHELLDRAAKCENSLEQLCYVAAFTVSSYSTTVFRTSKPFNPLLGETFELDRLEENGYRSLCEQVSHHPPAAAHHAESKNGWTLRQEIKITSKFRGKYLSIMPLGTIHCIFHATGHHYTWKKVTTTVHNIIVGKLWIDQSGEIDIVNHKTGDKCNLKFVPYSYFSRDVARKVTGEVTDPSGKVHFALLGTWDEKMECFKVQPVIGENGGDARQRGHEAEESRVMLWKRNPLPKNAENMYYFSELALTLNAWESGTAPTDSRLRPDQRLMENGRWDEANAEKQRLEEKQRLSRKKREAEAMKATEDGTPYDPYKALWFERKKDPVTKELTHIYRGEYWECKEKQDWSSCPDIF
Excerpt: [^3H]-25-Hydroxycholesterol charcoal-dextran binding assay.
(§1) Methods are described above in the General Methods section.

HCT-116 p21^−/− cells = assay: cells; details: for GI50: Homo sapiens, HCT-116, 48 h, read-out: GI50 (nM) 48 h p21^−/−
Method: (§2) Cell viability assay. Cells were plated into 96-well plates in 75 μL of media. After 24 h, a time-zero plate was produced by adding 25 μL of media and 20 μL of CellTiter-Blue® (Promega) to the wells, followed by incubation at 37° C. for 90 min. Fluorescence (544 nm excitation; 590 nm emission) was detected using a SPECTRAmax® Gemini XS to establish cell viability at time of dosing. Then, compounds were serially diluted in media and delivered to the cells as 4× solutions in 25 μL of media. At either 48 h or 72 h, CellTiter-Blue® was added and the fluorescence was recorded as described above.
(§3) Tasdemir et al. (2002) J Nat Prod 65:210-4. GI50-values of the compounds were determined in HCT-116 p21^+/+ (wt) and p21^−/− cells after 48 h using a resazurin redox dye to measure cell viability.
as §1

[1] = tested on: HCT-116 p21^+/+ (wt) cells; assay: Growth inhibition (cell viability assay) of HCT-116 p21+/+ cells; details: for GI50: Homo sapiens
Method: as §2, §3, §1

ORP4L-myc-his = biological target: T2, ORP4L-myc-his (Homo sapiens, UniProt Q969R2); assay: [3H]-25-hydroxycholesterol charcoal-dextran binding assay with ORP4L-myc-his
T2 sequence (Q969R2 1-916): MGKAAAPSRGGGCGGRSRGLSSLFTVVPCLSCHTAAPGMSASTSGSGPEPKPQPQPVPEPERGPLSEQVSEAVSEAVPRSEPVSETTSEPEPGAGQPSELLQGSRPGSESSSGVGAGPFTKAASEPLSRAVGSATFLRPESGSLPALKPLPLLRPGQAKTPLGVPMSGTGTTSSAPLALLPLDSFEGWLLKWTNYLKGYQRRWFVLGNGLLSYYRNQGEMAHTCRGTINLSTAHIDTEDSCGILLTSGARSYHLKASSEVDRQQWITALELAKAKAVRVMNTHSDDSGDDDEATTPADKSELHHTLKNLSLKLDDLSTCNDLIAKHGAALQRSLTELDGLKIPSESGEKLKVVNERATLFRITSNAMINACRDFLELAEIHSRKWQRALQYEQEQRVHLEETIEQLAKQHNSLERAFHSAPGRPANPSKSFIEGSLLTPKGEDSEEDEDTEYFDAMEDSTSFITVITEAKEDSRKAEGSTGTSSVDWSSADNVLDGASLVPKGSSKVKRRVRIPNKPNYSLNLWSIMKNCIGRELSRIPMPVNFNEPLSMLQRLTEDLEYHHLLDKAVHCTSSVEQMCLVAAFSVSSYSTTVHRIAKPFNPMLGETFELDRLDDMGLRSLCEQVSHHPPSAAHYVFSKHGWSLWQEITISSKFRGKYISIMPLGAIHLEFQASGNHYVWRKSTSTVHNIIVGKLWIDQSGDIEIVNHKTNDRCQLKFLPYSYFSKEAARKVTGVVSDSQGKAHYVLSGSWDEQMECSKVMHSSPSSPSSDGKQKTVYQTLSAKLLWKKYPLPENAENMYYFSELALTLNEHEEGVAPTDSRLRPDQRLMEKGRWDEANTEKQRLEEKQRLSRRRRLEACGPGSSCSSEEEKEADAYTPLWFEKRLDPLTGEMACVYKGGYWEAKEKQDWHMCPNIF
Method: [^3H]-25-Hydroxycholesterol charcoal-dextran binding assay. […] These vectors were transfected into HEK-293T cells using Lipofectamine™2000 (Invitrogen), and 48 h after transfection, on-plate lysis of the transfected cells with the M-Per®/HALT™ with EDTA (ThermoScientific) reagent was performed, followed by ultracentrifugation at 100,000 g. The S100 lysate was diluted to 0.2 mg/mL, aliquoted and stored at −80° C. until use. The HEK-293T OSBP1-, ORP4L- or lacZ-myc-his lysate was incubated with [^3H]-25-hydroxycholesterol at 4° C. for 16 h in 96-well plates. After incubation, charcoal/dextran (C/D) was added to the wells for 30 min of shaking at RT, followed by centrifugation for 15 min at 1900 g to pellet the C/D. The C/D-cleared lysate was added to MicroScint™-20 (PerkinElmer) scintillation fluid, and the remaining protein-bound radiolabel was quantified using a TopCount™ scintillation counter. [^3H]-25-hydroxycholesterol binding curves and competition curves were repeated at least three times.
Lysates were thawed on ice, with brief periods of hand warming. Both the ^3H-25-OHC direct binding assays and the ^3H-25-OHC competition binding assays were set up similarly, with a large stock of binding assay lysate being prepared, then 73.5 μL of the binding assay mixture dispensed using a multi-channel pipettor into “V”-shaped 96-well plates. For the ^3H-25-OHC direct binding assay, 1.5 μL of ^3H-25-OHC and ^3H-25-OHC/40×25-OHC added to the wells in dilutions in 100% ethanol. For the ^3H-25-OHC competition binding assays, ^3H-25-OHC was added to the large stock of binding assay lysate to a final concentration of 20 nM. This ^3H-25-OHC-containing binding lysate was then dispensed using a multi-channel pipettor into the 96-well plates. Then, 1.5 μL of a serial dilution of the inhibitors in either 100% ethanol (25-OHC) or DMSO (the ORPphilins) was added to each well.
The binding lysate used in each well of the 96-well plate consisted of 60 μL of 0.2 mg/mL S100 lysate, 7.5 μL 20% PVA, and 5.6 μL 2M KCl. For ^3H-25-OHC binding curve experiments, 0.4 μL of buffer was then added (total volume per well: 73.5 μL). For the ^3H-25-OHC inhibition competition assays, 0.11 μL of 13.2 μM ^3H-25-OHC and 0.29 μL binding buffer was added for each well (total volume per well: 73.5 μL).
Binding assays were incubated, standing, for 16 h at 4° C. Then 30 μL of the rt C/D solution was multichannel pipetted into new “V’ shaped 96-well plates, and 60 μL of the binding lysate mixture was then added. The plates were briefly, lightly vortexed (˜10 sec), 10 and then rocked at 250 rpm for 30 min at rt. The plates were then centrifuged at 1900 g for 15 min at 4° C. in Microplate Carriers (Sorvall cat. #75006449S) in a Sorvall Legend RT centrifuge. Carefully so as to not disturb the C/D pellet, 30 μL of the supernatant was transferred to 170 μL of Microscint-20 in the OptiPlates. The plates were sealed with the TopSealA-Films, and vigorously vortexed (max speed, >1 min). ^3H-25-OHC detection in the wells was then performed using a TopCount Scintillation detector, counting each well for 2 min. Data was graphed and analyzed using GraphPad PrismS, using non-linear regression to determine KD and K1 values.
Binding experiments were performed at 4° C. for 16 h. Unbound sterol was removed using dextran-coated charcoal, and protein-bound sterol left in the supernatant was quantified by scintillation counting. Ki-values were determined as mean±s.d. from at least three independent experiments.

HCT-116 cells = assay: Growth inhibition with 25-OHC co-administration; type: cell-based, human; details: 10 μM 25-OHC for 1 and 2
Method: 25-OHC (11) is a high-affinity ligand of OSBP1 and ORP4L that is not cytotoxic at concentrations up to 10 μM. Example 1 established that the ORPphilins compete with 25-OHC for binding to OSBP1 and ORP4L (FIG. 2D,E). Therefore, if OSBP1 and ORP4L mediate the biological activities of these compounds, co-administration of sub-lethal doses of 25-OHC with the ORPphilins should inhibit binding of the ORPphilins to OSBP1 and ORP4L, thereby desensitizing cells to the cytotoxic effects of the ORPphilins.

[2] = biological target: T3, OSBP1 protein levels in HCT-116 cells (Homo sapiens, UniProt P22059); assay: OSBP1 protein levels by western blotting; type: cell-based; details: for block of OSBP1 degradation by 1 and 2: co-administered with 1 and 2; for effect on OSBP1 levels, compound alone: concentration not given
T3 construct: endogenous in cells; host or cells: HCT-116
T3 sequence (P22059 1-807): T1 sequence (P22059 1-807)
Method: A possible explanation for this observation was that treatment with 1 and 2 caused a decrease in OSBP1 levels. Treatment of HCT-116 cells with vehicle (DMSO) or 25-OHC (10 μM) had no effect on OSBP1 levels, as assessed by western blotting (FIG. 6A). However, treatment with 1 or 2 induced a dramatic, time-dependent reduction of OSBP1 levels (FIG. 6A). For example, 50 nM of 1 or 10 nM of 2 caused an approximately 75% reduction in OSBP1 protein levels at 24 h in HCT-116 cells (FIG. 6A), with a similar effect recorded in A549 cells. […] OSBP1 levels were determined using both an antibody recognizing the far N-terminus of OSBP1 (FIG. 6) and also an antibody recognizing the C-terminus of OSBP1.
One possible explanation for the reduction in OSBP1 levels upon treatment with 1 and 2 was proteasome-dependent degradation. To determine whether degradation of OSBP1 was proteasome dependent, proteasome inhibitors MG-132 or lactacystin were co-administered with 1 and 2. […] Similar results were obtained in A549 cells.

[3] = competition with 20 nM [3H]-25-OHC, HEK-293T S100 lysate, 4° C., 16 h
[4] = HCT-116, 48 h, read-out: GI50 (nM) 48 h p21^+/+

Row | Compound | GI50 (A549 cells) | GI50 (HCT-116 p21^−/− cells) | GI50 [1, 4] | Ki (OSBP1-myc-his) | Ki (ORP4L-myc-his) | other results
1 | COc1ccc(C(=O)OC2C(OC3C(O)COC(O[C@H]4C[C@H]5[C@@H]6CC=C7C[C@@H](O[Si](C)(C)C(C)(C)C)CC[C@]7(C)C6CC[C@]5(C)[C@@]4(O)[C@H](C)C(=O)CCC(C)C)C3OC(C)=O)OCC(O)C2O)cc1 (stereo partly drawn) [Compound 108, 3-(tert-Butyldimethylsilyl)-OSW-1] | 1600 ± 500 nM | 720 ± 90 nM | 2300 ± 200 nM |  |  | fold less cytotoxic than 2 in A549 cells (A549 cells): 700 fold; [^3H]-25-OHC K1 (nM) OSBP1-myc-his (OSBP1-myc-his; [3]): None detected; competition with [3H]-25-OHC for binding to OSBP1 (OSBP1-myc-his; listed as 9): did not compete; also recorded: does not bind; fold less cytotoxic than 2 in HCT-116 p21−/− cells (HCT-116 p21^−/− cells): 2100 fold; fold less active than OSW-1 (2) in HCT-116 cells [1]: ca. 1,400 fold; GI50 ([1]; HCT-116, read-out: GI50 in HCT-116 cells): 2300 nM; [^3H]-25-OHC K1 (nM) ORP4L-myc-his (ORP4L-myc-his; [3]): None detected; competition with [3H]-25-OHC for binding to ORP4L (ORP4L-myc-his; listed as 9): did not compete; also recorded: does not bind
2 | C=CCOC(=O)NCCCCCCNC(=O)O[C@H]1CC[C@@]2(C)C(=CC[C@@H]3C2CC[C@@]2(C)[C@H]3C[C@H](OC3OCC(O)C(OC4OCC(O)C(O)C4OC(=O)c4ccc(OC)cc4)C3OC(C)=O)[C@]2(O)[C@H](C)C(=O)CCC(C)C)C1 (stereo partly drawn) [Compound 103] |  | 138 ± 16 nM | 172 ± 2 nM |  |  | 
3 | C=CCOC(=O)NCc1ccc(CNC(=O)OC2C(O)COC(OC3C(O)COC(O[C@H]4C[C@H]5[C@@H]6CC=C7C[C@@H](O)CC[C@]7(C)C6CC[C@]5(C)[C@@]4(O)[C@H](C)C(=O)CCC(C)C)C3OC(C)=O)C2OC(=O)c2ccc(OC)cc2)cc1 (stereo partly drawn) [Compound 6a] | 0.1 ± 0.04 nM | 0.08 ± 0.02 nM | 0.6 ± 0.13 nM | 18 ± 5 nM | 43 ± 9 nM | p21−/− selectivity of growth inhibition (HCT-116 p21−/− versus wt) (HCT-116 p21^−/− cells; 48 h): commensurate with that of 2; antiproliferative potency relative to 2 [1]: maintained the antiproliferative potency of 2
4 | C=CCOC(=O)NCc1ccc(CNC(=O)O[C@H]2CC[C@@]3(C)C(=CC[C@@H]4C3CC[C@@]3(C)[C@H]4C[C@H](OC4OCC(O)C(OC5OCC(O)C(O)C5OC(=O)c5ccc(OC)cc5)C4OC(C)=O)[C@]3(O)[C@H](C)C(=O)CCC(C)C)C2)cc1 (stereo partly drawn) [Compound 106] |  | 5 ± 3 nM | 91 ± 10 nM |  |  | 
5 | CC(=O)OC1C(O[C@H]2C[C@H]3[C@@H]4CC=C5C[C@@H](O)CC[C@]5(C)C4CC[C@]3(C)[C@@]2(O)[C@H](C)C(=O)CCC(C)C)OCC(O)C1OC1OCC(O)C(O)C1O (stereo partly drawn) [Compound 7] | 41 ± 25 nM | 17 ± 2 nM | 120 ± 40 nM | 63 ± 12 nM | 120 ± 31 nM | 
6 | C[C@H]1CCC/C=C/[C@@H]2C[C@H](O)C[C@H]2[C@H](O)/C=C/C(=O)O1 [brefeldin A] |  |  |  |  |  | effect of 25-OHC co-administration on the antiproliferative activity (HCT-116 cells): did not affect
7 | COc1ccc(C(=O)OC2C(OC3C(O)COC(O[C@H]4C[C@H]5[C@@H]6CC=C7C[C@@H](OC(=O)NCCCCCCNC(=O)OCC8c9ccccc9-c9ccccc98)CC[C@]7(C)C6CC[C@]5(C)[C@@]4(O)[C@H](C)C(=O)CCC(C)C)C3OC(C)=O)OCC(O)C2O)cc1 (stereo partly drawn) [Compound 102] |  | 97 nM | 85 nM |  |  | 
8 | C=CCOC(=O)NCc1ccc(CNC(=O)OC2COC(OC3C(O)COC(O[C@H]4C[C@H]5[C@@H]6CC=C7C[C@@H](O)CC[C@]7(C)C6CC[C@]5(C)[C@@]4(O)[C@H](C)C(=O)CCC(C)C)C3OC(C)=O)C(OC(=O)c3ccc(OC)cc3)C2O)cc1 (stereo partly drawn) [Compound 6c] | 2.9 ± 0.9 nM | 2.2 ± 0.5 nM | 17 ± 4 nM | 46 ± 11 nM | 150 ± 50 nM | 
9 | CC(=O)N[C@@H](CSC(=O)[C@]1([C@@H](O)C(C)C)NC(=O)[C@H](C)[C@@H]1O)C(=O)O [lactacystin] |  |  |  |  |  | block of OSBP1 degradation by 1 and 2 [2]: completely blocked; effect on OSBP1 levels, compound alone [2]: did not affect
10 | C=CCOC(=O)NCCCCCCNC(=O)O[C@H]1CC[C@@]2(C)C(=CC[C@@H]3C2CC[C@@]2(C)[C@H]3C[C@H](OC3OCC(O)C(OC4OCC(O)C(O)C4O)C3O)[C@]2(O)[C@H](C)C(=O)CCC(C)C)C1 (stereo partly drawn) [Compound 104] |  | 525 ± 4 nM | > 2700 nM |  |  | 
11 | CC(C)C[C@@H](C=O)NC(=O)[C@H](CC(C)C)NC(=O)[C@H](CC(C)C)NC(=O)OCc1ccccc1 [MG-132] (Cbz-Leu-Leu-Leu-aldehyde) |  |  |  |  |  | block of OSBP1 degradation by 1 and 2 [2]: completely blocked; effect on OSBP1 levels, compound alone [2]: did not affect
12 | C=CCOC(=O)NCc1ccc(CNC(=O)O[C@H]2CC[C@@]3(C)C(=CC[C@@H]4C3CC[C@@]3(C)[C@H]4C[C@H](OC4OCC(O)C(OC5OCC(O)C(O)C5O)C4O)[C@]3(O)[C@H](C)C(=O)CCC(C)C)C2)cc1 (stereo partly drawn) [Compound 20] |  | 550 ± 300 nM | 6500 ± 3600 nM |  |  | 
13 | CC(C)CCC(=O)[C@@H](C)[C@@]1(O)[C@@H](OC2OCC(O)C(OC3OCC(O)C(O)C3O)C2O)C[C@H]2[C@@H]3CC=C4C[C@@H](O)CC[C@]4(C)C3CC[C@@]21C (stereo partly drawn) [Compound 8] | 570 ± 250 nM | 220 ± 60 nM | 1400 ± 400 nM | 170 ± 7 nM | 760 ± 200 nM | 
